Counter-ions that a name gives are not always drawn.

One assay deals with T1, human V1a receptor (Homo sapiens, UniProt P37288).
T1 construct: expressed in transfected cells; host or cells: HEK293 cells, transiently transfected; cell membranes
T1 sequence (P37288 whole entry): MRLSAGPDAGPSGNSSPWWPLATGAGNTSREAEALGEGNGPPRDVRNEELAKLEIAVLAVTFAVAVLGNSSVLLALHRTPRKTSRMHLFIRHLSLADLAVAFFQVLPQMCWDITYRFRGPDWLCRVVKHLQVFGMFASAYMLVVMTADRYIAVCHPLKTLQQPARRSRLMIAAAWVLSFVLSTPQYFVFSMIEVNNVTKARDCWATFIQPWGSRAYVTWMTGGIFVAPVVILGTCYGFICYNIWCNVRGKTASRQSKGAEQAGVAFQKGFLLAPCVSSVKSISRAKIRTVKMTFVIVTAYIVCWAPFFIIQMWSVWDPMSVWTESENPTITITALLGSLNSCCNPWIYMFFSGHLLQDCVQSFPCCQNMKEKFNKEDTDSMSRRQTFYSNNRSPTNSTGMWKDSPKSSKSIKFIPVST
Put plainly: human V1a receptor binding (3H-Vasopressin SPA, HEK293 membranes).
Conditions: not given
As to the method:
The human V1a receptor was cloned by RT-PCR from total human liver RNA. The coding sequence was subcloned in an expression vector after sequencing to confirm the identity of the amplified sequence. […] Cell membranes were prepared from HEK293 cells transiently transfected with the expression vector and grown in 20 liter fermenters with the following protocol.
50 g of cells are resuspended in 30 ml freshly prepared ice cold Lysis buffer (50 mM HEPES, 1 mM EDTA, 10 mM magnesium dichloride adjusted to pH=7.4+complete cocktail of protease inhibitor (Roche Diagnostics)). Homogenized with Polytron for 1 min and sonicated on ice for 2×2 minutes at 80% intensity (Vibracell sonicator). The preparation is centrifuged 20 min at 500 g at 4° C., the pellet is discarded and the supernatant centrifuged 1 hour at 43′000 g at 4° C. (19'000 rpm). The pellet is resuspended in 12.5 ml Lysis buffer+12.5 ml sucrose 20% and homogenized using a Polytron for 1-2 min. The protein concentration is determined by the Bradford method and aliquots are stored at −80° C. until use. For binding studies 60 mg Yttrium silicate SPA beads (Amersham®) are mixed with an aliquot of membrane in binding buffer (50 mM Tris, 120 mM sodium chloride, 5 mM potassium chloride, 2 mM calcium dichloride, 10 mM magnesium dichloride) for 15 minutes with mixing. 50 μl of bead/membrane mixture is then added to each well of a 96 well plate, followed by 50 μl of 4 nM 3H-Vasopressin (American Radiolabeled Chemicals). For total binding measurement 100 μl of binding buffer are added to the respective wells, for non-specific binding 100 μl of 8.4 mM cold vasopressin and for compound testing 100 μl of a serial dilution of each compound in 2% dimethyl sulfoxide. The plate is incubated 1 h at room temperature, centrifuged 1 min at 1000 g and counted on a Packard Top-Count. Non-specific binding counts are subtracted from each well and data is normalized to the maximum specific binding set at 100%. To calculate an IC50 the curve is fitted using a non-linear regression model (XLfit) and the Ki is calculated using the Cheng-Prussoff equation.
Compound `CC(C)(C)OC(=O)N1Cc2cc(Cl)ccc2-n2c(nnc2[C@H]2CC[C@H](c3noc4ncccc43)CC2)C1` [Example 16, trans-8-Chloro-1-(4-isoxazolo[5,4-b]pyridin-3-yl-cyclohexyl)-4H,6H-2,3,5,10b-tetraaza-benzo[e]azulene-5-carboxylic acid tert-butyl ester] showed a Ki of 3.63 nM.
The same measure, in the same setting: the value for `CN1Cc2cc(Cl)ccc2-n2c(nnc2[C@H]2CC[C@H](c3noc4ccccc43)CC2)C1` [Example 6, trans-1-(4-Benzo[d]isoxazol-3-yl-cyclohexyl)-8-chloro-5-methyl-5,6-dihydro-4H-2,3,5,10b-tetraaza-benzo[e]azulene] was 0.794 nM.

The assay is the same for the next values; noted with them: 3H-Vasopressin displacement, membranes of HEK293 cells transiently transfected with human V1a receptor; Ki by Cheng-Prusoff; read-out: pKi (hV1a) (converted).
Turning to `CNCCN1Cc2cc(Cl)ccc2-n2c(nnc2[C@H]2CC[C@H](c3nsc4ccccc43)CC2)C1` [Example 23, trans-{2-[1-(4-Benzo[d]isothiazol-3-yl-cyclohexyl)-8-chloro-4H,6H-2,3,5,10b-tetraaza-benzo[e]azulen-5-yl]-ethyl}-methyl-amine], the Ki is 0.603 nM.
Take `CC(C)(C)OC(=O)N1Cc2cc(Cl)ccc2-n2c(nnc2[C@H]2CC[C@H](c3noc4cc(F)ccc43)CC2)C1` [Example 7, trans-8-Chloro-[4-(6-fluoro-benzo[d]isoxazol-3-yl)-cyclohexyl]-4H,6H-2,3,5,10b-tetraaza-benzo[e]azulene-5-carboxylic acid tert-butyl ester]: the Ki was 4.79 nM.
On the same count and under the same terms, the same measure for `Clc1ccc2c(c1)CNCc1nnc([C@H]3CC[C@H](c4noc5ccccc54)CC3)n1-2` [Example 5, trans-1-(4-Benzo[d]isoxazol-3-yl-cyclohexyl)-8-chloro-5,6-dihydro-4H-2,3,5,10b-tetraaza-benzo[e]azulene hydrochloride]: 0.891 nM; for `CN(C)CC(=O)N1Cc2cc(Cl)ccc2-n2c(nnc2[C@H]2CC[C@H](c3nsc4ccccc43)CC2)C1` [Example 25, trans-1-[1-(4-Benzo[d]isothiazol-3-yl-cyclohexyl)-8-chloro-4H,6H-2,3,5,10b-tetraaza-benzo[e]azulen-5-yl]-2-dimethylamino-ethanone]: 0.302 nM; for `CC(C)(C)OC(=O)N1Cc2cc(Cl)ccc2-n2c(nnc2[C@H]2CC[C@H](c3nsc4cnccc43)CC2)C1` [Example 30]: 5.5 nM.
The same measure, in the same setting: the value for `CN1Cc2cc(Cl)ccc2-n2c(nnc2[C@H]2CC[C@H](c3nsc4ccccc43)CC2)C1` [Example 21, trans-1-(4-Benzo[d]isothiazol-3-yl-cyclohexyl)-8-chloro-5-methyl-5,6-dihydro-4H-2,3,5,10b-tetraaza-benzo[e]azulene] was 1.58 nM; that for `CN1Cc2cc(Cl)ccc2-n2c(nnc2[C@H]2CC[C@H](c3noc4ccc(F)cc43)CC2)C1` [Example 12, trans-8-Chloro-1-[4-(5-fluoro-benzo[d]isoxazol-3-yl)-cyclohexyl]-5-methyl-5,6-dihydro-4H-2,3,5,10b-tetraaza-benzo[e]azulene] was 0.794 nM; that for `CN1Cc2cc(Cl)ccc2-n2c(nnc2[C@H]2CC[C@H](c3nsc4cnccc43)CC2)C1` [Example 32] was 0.891 nM.
